# Experimental data from the supplement of paper PMC11061612.
# Assays:
# AZD1775 = compound: C=CCn1c(=O)c2cnc(Nc3ccc(N4CCN(C)CC4)cc3)nc2n1-c1cccc(C(C)(C)O)n1 [AZD1775]; details: max 3 µM
# In short: (§1)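 Cancer cell lines were seeded into 1536-well plates in 7.5 μl medium (DMEM/F12 or RPMI, 10% FBS), held 24 hours at 37°C and 5% CO2, and dosed for 72 hours with final DMSO typically 0.2%. Luminescence from CellTiter-Glo 2.0, scaled between blank-well and DMSO-well means, served as viability. The single-agent IC50 was obtained from dose-response fits with a non-linear mixed effects model, each fit being a two-parameter logistic curve.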
# Alisertib = compound: COc1cc(Nc2ncc3c(n2)-c2ccc(Cl)cc2C(c2c(F)cccc2OC)=NC3)ccc1C(=O)O [Alisertib]; details: max 10 µM
# In short: as §1
# AZD4320 = compound: CN(CC[C@H](CSC1=CC=CC=C1)NC2=C(C=C(C=C2)S(=O)(=O)NC(=O)C3=CC=C(C=C3)N4CCC(CC4)[C@H](C5=CC=CC=C5C6=CC=C(C=C6)Cl)O)S(=O)(=O)C(F)(F)F)CCO [AZD4320]; details: max 1 µM
# In short: as §1
# AZD6738 = compound: C[C@@H]1COCCN1C2=NC(=NC(=C2)C3(CC3)[S@](=N)(=O)C)C4=C5C=CNC5=NC=C4 [AZD6738]; details: max 10 µM
# In short: as §1
# Olaparib = compound: O=C(c1cc(Cc2n[nH]c(=O)c3ccccc23)ccc1F)N1CCN(C(=O)C2CC2)CC1 [Olaparib]; details: max 10 µM
# In short: as §1
# Prexasertib = compound: COc1cccc(OCCCN)c1-c1cc(Nc2cnc(C#N)cn2)n[nH]1 [Prexasertib]; details: max 1 µM
# In short: as §1
# SG3199 = compound: CC1=CN2[C@@H](C1)C=NC3=CC(=C(C=C3C2=O)OC)OCCCCCOC4=C(C=C5C(=C4)N=C[C@@H]6CC(=CN6C5=O)C)OC [SG3199]; details: max 0.001 µM
# In short: as §1
# AZD7648 = compound: Cc1cc2ncnn2cc1Nc1ncc2c(n1)n(C1CCOCC1)c(=O)n2C [AZD7648]; details: max 10 µM
# In short: as §1
# SN-38 = compound: CCc1c2c(nc3ccc(O)cc13)-c1cc3c(c(=O)n1C2)COC(=O)[C@]3(O)CC [SN-38]; details: max 0.3 µM
# In short: as §1
# AZD2811 = compound: CCN(CCO)CCCOc1ccc2c(Nc3cc(CC(=O)Nc4cccc(F)c4)[nH]n3)ncnc2c1 [AZD2811]; details: max 1 µM
# In short: as §1
# Trametinib = compound: CC(=O)Nc1cccc(-n2c(=O)n(C3CC3)c(=O)c3c(Nc4ccc(I)cc4F)n(C)c(=O)c(C)c32)c1 [Trametinib]; details: max 1 µM
# In short: as §1
# Capivasertib = compound: C1CN(CCC1(C(=O)N[C@@H](CCO)C2=CC=C(C=C2)Cl)N)C3=NC=NC4=C3C=CN4 [Capivasertib]
# In short: as §1
# Selumetinib = compound: Cn1cnc2c(F)c(Nc3ccc(Br)cc3Cl)c(C(=O)NOCCO)cc21 [Selumetinib]
# In short: as §1
# AZD8186 = compound: C[C@@H](Nc1cc(F)cc(F)c1)c1cc(C(=O)N(C)C)cc2c(=O)cc(N3CCOCC3)oc12 [AZD8186]; details: max 3 µM
# In short: as §1
# AZD5991 = compound: Cc1c2c(nn1C)CSCc1cc(n(C)n1)CSc1cc(c3ccccc3c1)OCCCc1c(C(=O)O)n(C)c3c-2c(Cl)ccc13 [AZD5991]; details: max 1 µM
# In short: as §1
# Taselisib = compound: Cc1nc(-c2cn3c(n2)-c2ccc(-c4cnn(C(C)(C)C(N)=O)c4)cc2OCC3)n(C(C)C)n1 [Taselisib]; details: max 10 µM
# In short: as §1
# Venetoclax = compound: CC1(C)CCC(CN2CCN(c3ccc(C(=O)NS(=O)(=O)c4ccc(NCC5CCOCC5)c([N+](=O)[O-])c4)c(Oc4cnc5[nH]ccc5c4)c3)CC2)=C(c2ccc(Cl)cc2)C1 [Venetoclax]; details: max 1 µM
# In short: as §1
# AZD0156 = compound: CN(C)CCCOc1ccc(-c2ccc3ncc4c(c3c2)n(C2CCOCC2)c(=O)n4C)cn1 [AZD0156]; details: max 3 µM
# In short: as §1
# Doxorubicin = compound: COc1cccc2c1C(=O)c1c(O)c3c(c(O)c1C2=O)C[C@@](O)(C(=O)CO)C[C@@H]3O[C@H]1C[C@H](N)[C@H](O)[C@H](C)O1 [Doxorubicin]; details: max 1 µM
# In short: as §1
# Crizotinib = compound: C[C@@H](Oc1cc(-c2cnn(C3CCNCC3)c2)cnc1N)c1c(Cl)ccc(F)c1Cl [Crizotinib]; details: max 10 µM
# In short: as §1
# AZD1390 = compound: CC(C)n1c(=O)n(C)c2cnc3cc(F)c(-c4ccc(OCCCN5CCCCC5)nc4)cc3c21 [AZD1390]; details: max 0.3 µM
# In short: as §1
# Palbociclib = compound: CC(=O)c1c(C)c2cnc(Nc3ccc(N4CCNCC4)cn3)nc2n(C2CCCC2)c1=O [Palbociclib]; details: max 10 µM
# In short: as §1
# Savolitinib = compound: C[C@@H](c1ccc2nccn2c1)n1nnc2ncc(-c3cnn(C)c3)nc21 [Savolitinib]; details: max 1 µM
# In short: as §1
# Gefitinib = compound: COc1cc2ncnc(Nc3ccc(F)c(Cl)c3)c2cc1OCCCN1CCOCC1 [Gefitinib]; details: max 10 µM
# In short: as §1
# Lapatinib = compound: CS(=O)(=O)CCNCc1ccc(-c2ccc3ncnc(Nc4ccc(OCc5cccc(F)c5)c(Cl)c4)c3c2)o1 [Lapatinib]; details: max 10 µM
# In short: as §1
# AZD5153 = compound: COc1nnc2ccc(N3CCC(c4ccc(OCCN5CCN(C)C(=O)[C@H]5C)cc4)CC3)nn12 [AZD5153]; details: max 1 µM
# In short: as §1
# Dasatinib = compound: CC1=C(C(=CC=C1)Cl)NC(=O)C2=CN=C(S2)NC3=CC(=NC(=N3)C)N4CCN(CC4)CCO [Dasatinib]; details: max 2 µM
# In short: as §1
Cell Line,"IC50, cell viability 72 h (AZD1775) [nM]","IC50, cell viability 72 h (Alisertib) [nM]","IC50, cell viability 72 h (AZD4320) [nM]","IC50, cell viability 72 h (AZD6738) [nM]","IC50, cell viability 72 h (Olaparib) [nM]","IC50, cell viability 72 h (Prexasertib) [nM]","IC50, cell viability 72 h (SG3199) [nM]","IC50, cell viability 72 h (AZD7648) [nM]","IC50, cell viability 72 h (SN-38) [nM]","IC50, cell viability 72 h (AZD2811) [nM]","IC50, cell viability 72 h (Trametinib) [nM]","IC50, cell viability 72 h (Capivasertib; max 3 µM) [nM]","IC50, cell viability 72 h (Selumetinib; max 3 µM) [nM]","IC50, cell viability 72 h (AZD8186) [nM]","IC50, cell viability 72 h (AZD5991) [nM]","IC50, cell viability 72 h (Taselisib) [nM]","IC50, cell viability 72 h (Venetoclax) [nM]","IC50, cell viability 72 h (AZD0156) [nM]","IC50, cell viability 72 h (Doxorubicin) [nM]","IC50, cell viability 72 h (Crizotinib) [nM]","IC50, cell viability 72 h (AZD1390) [nM]","IC50, cell viability 72 h (Palbociclib) [nM]","IC50, cell viability 72 h (Savolitinib) [nM]","IC50, cell viability 72 h (Gefitinib) [nM]","IC50, cell viability 72 h (Capivasertib; max 10 µM) [nM]","IC50, cell viability 72 h (Selumetinib; max 10 µM) [nM]","IC50, cell viability 72 h (Lapatinib) [nM]","IC50, cell viability 72 h (AZD5153) [nM]","IC50, cell viability 72 h (Dasatinib) [nM]"
JVM-3 (B-Cell Non-Hodgkin's Lymphoma),117,1600,80.9,4320,> 10000,7.34,> 1,> 10000,2.05,> 1000,270,> 3000,1980,> 3000,> 1000,1610,> 1000,> 3000,84.3,,,,,,,,,,
C-4-I (Cervical Carcinoma),195,3420,> 1000,2520,> 10000,18.5,> 1,> 10000,41,> 1000,773,,,> 3000,288,2550,> 1000,> 3000,302,> 10000,> 300,> 10000,> 1000,> 10000,> 10000,> 10000,7230,889,> 2000
HOP-62 (Lung Adenocarcinoma),> 3000,8660,> 1000,> 10000,> 10000,225,> 1,> 10000,101,> 1000,200,,,> 3000,> 1000,> 10000,> 1000,> 3000,> 1000,> 10000,> 300,> 10000,> 1000,> 10000,> 10000,8920,> 10000,243,956
OE19 (Esophageal Adenocarcinoma),> 3000,167,> 1000,4050,> 10000,105,> 1,> 10000,> 300,390,> 1000,,,> 3000,> 1000,2180,> 1000,> 3000,> 1000,3810,> 300,> 10000,> 1000,1360,> 10000,> 10000,287,907,> 2000
SU8686 (Pancreatic Carcinoma),> 3000,> 10000,> 1000,> 10000,> 10000,489,> 1,> 10000,> 300,> 1000,> 1000,,,> 3000,> 1000,> 10000,> 1000,> 3000,> 1000,> 10000,> 300,> 10000,> 1000,> 10000,> 10000,> 10000,> 10000,> 1000,> 2000
VA-ES-BJ (Other Solid Carcinomas),3000,4770,> 1000,4580,> 10000,118,> 1,> 10000,18.8,> 1000,> 1000,,,> 3000,> 1000,4500,> 1000,> 3000,464,> 10000,> 300,> 10000,> 1000,> 10000,> 10000,> 10000,> 10000,> 1000,> 2000
KMOE-2 (Acute Myeloid Leukemia),411,465,409,8120,> 10000,55.8,> 1,> 10000,40,> 1000,1.74,,,> 3000,773,9870,> 1000,> 3000,881,> 10000,> 300,> 10000,> 1000,> 10000,> 10000,104,> 10000,102,> 2000
